{"source": "patent US8703451B2", "about": "“Method for the production of free carboxylic acids” (priority 2008, dated 2014)", "key": {"[1]": {"test_system": "Ralstonia eutropha PHB-4 (reclassified as Cupriavidus necator, DSMZ 541)", "format": "cell-based", "settings": "1, 5 and 10% (w/v) TOA; shake flasks, 24 h, 30° C., 140 rpm", "protocol": "2-Hydroxyisobutyric-acid-producing Ralstonia eutropha PHB-4 (reclassified as Cupriavidus necator, DSMZ 541), which have been transformed with the plasmid pBBR1MCS-2::icmA-icmB, SEQ ID No. 1, were grown as two 50 ml cultures in a shaking incubator under standard conditions (30° C., 140 rpm, 20 h) in LB medium.\nFrom this, for the biomass production, 5×10 ml were inoculated over into 40 ml of modified mineral salt medium (in accordance with Schlegel et al., 1961) and incubated for 10 h under standard conditions\nThe biomass cultures were centrifuged off and resuspended in 10 ml of modified mineral salt medium.\nUsing the resuspensions, 5 flasks of a Ramos shaking incubator (Respiration Activity Monitoring System) were inoculated. The flasks were filled with modified mineral salt medium (addition of 1 g/l of yeast extract and 15 g/l of fructose) with vitamin B12 (60 mg/l). 3 flasks additionally comprised 1, 5 and 10% (w/v) of trioctylamine (TOA).\nThe flasks were incubated for 24 h under standard conditions (30° C., 140 rpm).\nAfter 0, 15 and 24 hours, samples were taken and CFU (OD), pH, and 2HIB concentration in the broth were determined.\nFor the CFU determination, dilution series of the broths were prepared. The dilutions were plated out onto LB agar plates with 300 mg/l of Kanamycin and incubated for 24 h at 30° C. A 4-fold determination of the dilutions 10^−8 and 10^−9 was carried out."}, "[2]": {"test_system": "Ralstonia eutropha PHB-4 (reclassified as Cupriavidus necator, DSMZ 541)", "format": "cell-based", "settings": "0.5%, 1%, 5% and 10% (w/v) TOA; over a period of 20 hours (fermentation time 46-65 hours)", "protocol": "Biocompatibility of TOA (trioctylamine) with Ralstonia eutropha Cultures of Ralstonia eutropha PHB-4 (reclassified as Cupriavidus necator, DSMZ 541) transformed with the plasmid: pBBR1MCS-2::icmA-icmB with SEQ ID No. 1 were fermented on a 400 ml scale in a standard medium for 46 hours to an OD (optical density at 600 nm) of ca. 30, which corresponds to a CFU (colony formed units) of 1×10^11 per ml, under standard conditions (30° C.; pH 6.8; rpm 250-750; pO2 20%).\nAfter a fermentation time of 48 hours, 0.5%, 1%, 5% and 10% (w/v) trioctylamine (TOA) were added under sterile conditions. After a further 6 and 20 hours the CFU were determined.\nTo ascertain the CFU, dilution series of the broths were prepared. The dilutions were plated out onto agar plates and incubated for 24 hours at 30° C.\nThe values are summarized in the table below, the CFU values are standardized to 1 ml of fermentation broth."}}}
{"smiles": "CCCCCCCCN(CCCCCCCC)CCCCCCCC", "note": "[TOA, trioctylamine]", "values": [{"measurement": "Influence on cell growth (CFU, FIG. 1)", "setting": "[1]", "result": "not influenced"}, {"measurement": "Change of CFU in the presence of TOA", "setting": "[2]", "result": "increased further"}]}
